Legend:
[1] = system: human proximal tubule (HK-2) cells; assay: Superoxide concentration in LPS-treated cultured HK-2 cells measured by DHE-HPLC; format: cell-based; settings: LPS treated HK-2 cells, normalized to protein concentration, n=3 (FIG. 1)
Method: Superoxide concentration was normalized to protein concentration. Data represent mean and SEM.
Typically, cultured human proximal tubule (HK-2) cells were treated with LPS to induce superoxide free radical formation. The level of superoxide is indicated by the formation of 2-hydroxyethidium as described, for example by Zielonka et al., (2008) Nat. Protocols 3: 8-21, incorporated herein by reference in its entirety.

[2] = system: C57bl/6J mice, bilateral renal ischemia-reperfusion; assay: 30 minute bilateral renal ischemia-reperfusion in mice; format: in vivo; settings: for urinary albumin excretion: 24 hour urine, collected 48 hours following 30 minute bilateral renal ischemia-reperfusion (FIG. 2); for plasma creatinine levels: 48 hours following 30 minute bilateral renal ischemia-reperfusion (FIG. 3); for plasma blood urea nitrogen (BUN): 48 hours following 30 minutes bilateral renal ischemia-reperfusion (FIG. 4); for kidney superoxide (hydrocyanine-3 fluorescence, DHE-HPLC, nitrotyrosine staining): mouse kidney after 30 minutes renal ischemia (FIG. 6)
Method: Samples were collected 48 hours following 30 minute bilateral renal ischemia-reperfusion. Data represent mean and SEM.
(§1) Data represent mean and SEM.
BUN was measured 48 hours following 30 minutes bilateral renal ischemia-reperfusion. Data represent mean and SEM.
The effects of the Folate-TEMPOL conjugate of the present disclosure on renal ischemic-reperfusion injury prevention were observed by intravenously administering TEMPOL or Folate-TEMPOL. The renal artery was then clamped for about 30 mins, followed by 48 hours of reperfusion. Parameters measured as indicators of renal tubule injury included creatinine, BUN, and albumin levels both before and after ischemia. Also measured were the TEMPOL and Folate-TEMPOL concentrations in the plasma and the kidney.

[3] = system: human proximal tubule (HK-2) cells; assay: Uptake into HK-2 cells quantified by electron spin resonance (ESR); format: cell-based; settings: after incubation with HK-2 cells, ESR (FIG. 5D, 5E)
[4] = Tissue concentration quantified by ESR in mice after 48 hour intravenous infusion; format: in vivo; settings: kidney, ESR (FIG. 5F)
Description: as §1

[5] = listed as Folate-TEMPOL conjugate

Row | Structure (SMILES) | superoxide concentration in cultured HK-2 cells [1] | superoxide concentration in cultured HK-2 cells ([1]; listed as Folate-TEMPOL) | urinary albumin excretion [2] | urinary albumin excretion [2, 5] | plasma creatinine levels [2] | plasma creatinine levels [2, 5] | plasma blood urea nitrogen (BUN) [2] | plasma blood urea nitrogen (BUN) [2, 5] | renal structure, hematoxylin and eosin (H&E) staining of kidney sections ([2]; kidney sections harvested 48 hours post-ischemia (FIG. 7)) | kidney superoxide (hydrocyanine-3 fluorescence, DHE-HPLC, nitrotyrosine staining) [2] | kidney superoxide (hydrocyanine-3 fluorescence, DHE-HPLC, nitrotyrosine staining) [2, 5] | HK-2 cell concentration of tempol and tempol-folate [3] | HK-2 cell concentration of tempol and tempol-folate ([3]; listed as Folate-TEMPOL) | tissue tempol and tempol-folate concentration [4]
1 | CC1(C)CC(O)CC(C)(C)N1[O] [Tempol, 4-hydroxy-2,2,6,6-tetramethylpiperidine 1-oxyl] | effectively scavenged superoxide production | – | – | – | – | – | – | – | – | – | – | – | – | –
2 | CC1(C)CC(NC(=O)CCC(NC(=O)c2ccc(NCc3cnc4nc(N)nc(O)c4n3)cc2)C(=O)O)CC(C)(C)N1[O] (stereo not drawn) [tempol-folate] | effectively scavenged superoxide production | inhibits superoxide as efficiently as TEMPOL alone | prevents kidney injury more effectively than free tempol | the reduction was greater than if TEMPOL alone was used | preserves glomerular filtration rate from ischemia-reperfusion more effectively than unconjugated tempol | the reduction was greater than if TEMPOL alone was used | proximal tubule function is protected from ischemic injury by tempol-folate compared with free tempol | the reduction was greater than if TEMPOL alone was used | renal structure is protected from renal ischemia-reperfusion injury by tempol-folate treatment more efficiently than by ternpol treatment | more effective at scavenging superoxide in the kidney | significantly reduced | becomes more concentrated in cultured proximal tubule cells | accumulates in cultured proximal tubule cells to a greater extent than un-conjugated Tempol | becomes more concentrated in cultured proximal tubule cells and in vivo in kidneys of mice compared with tempol

From patent publication US8815860B2, “Methods for preventing oxidative stress injury of a tissue by a Folate-TEMPOL conjugate” (Emory University, priority 2009, dated 2014)
